Measurements taken from publication PMC5075052, “Modulation of the Substitution Pattern of 5-Aryl-2-Aminoimidazoles Allows Fine-Tuning of Their Antibiofilm Activity Spectrum and Toxicity” (Antimicrobial Agents and Chemotherapy, 2016).
Where two headings read alike, the source gives them in different places.

Assays:
[1] = system: S. epidermidis; test: Monospecies bacterial biofilm inhibition, static peg assay; format: cell-based, Staphylococcus epidermidis; conditions: Staphylococcus epidermidis, 37°C
Protocol: (§1) A static peg assay, described previously ([27], [74]), was used for bacterial biofilm formation. The Calgary biofilm device consists of a platform carrying 96 polystyrene pegs (Nunc no. 445497) that fits as a microtiter plate lid, with 1 peg hanging into each microtiter plate well (Nunc no. 269789). Twofold serial dilutions of the compounds (dissolved in 100% dimethyl sulfoxide [DMSO] or ethanol) in 100 μl liquid broth (TSB diluted 1/20) per well were prepared in the microtiter plate in duplicate or triplicate with a maximum concentration of 1,600 μM and a minimum concentration of 0.8 μM. Subsequently, an overnight culture of S. Typhimurium ATCC 14028, P. aeruginosa PA14, E. coli TG1, S. epidermidis, S. aureus SH1000, or S. aureus ATCC 6538 (all grown in LB) was diluted 1:100 into TSB diluted 1/20 (or TSB for S. epidermidis, S. aureus SH1000, and S. aureus ATCC 6538), whereas overnight cultures of S. liquefaciens MG44 and B. cepacia LMG1222T were diluted 1:50 into TSB diluted 1/20. P. gingivalis ATCC 33277 cultures were diluted in TSB diluted 1/20 to have a final concentration of 1 × 10^8 cells/ml. Next, 100 μl was added to each well of the microtiter plate, resulting in a total volume of 200 μl medium per well (final concentration range of compounds, 800 μM [2% DMSO or ethanol] to 0.4 μM [0.001% DMSO or ethanol]). In the next step, the pegged lid was placed on the microtiter plate and the plate was incubated for 24 h or 48 h at 25°C or 37°C without shaking. At 37°C, the plates were placed in a sealed container with wet towels on the bottom to prevent evaporation of the growth medium. Biofilms of P. gingivalis ATCC 33277 were grown anaerobically at 37°C for 72 h. During this incubation period, biofilms were formed on the surface of the pegs. After incubation, the optical density at 600 nm (OD600) for the planktonic cells in the microtiter plate was measured using a Synergy MX multimode reader (BioTek, Winooski, VT). This gives a first indication of the effect of the compounds on planktonic growth. For quantification of biofilm formation, the pegs were washed once in 200 μl PBS. The remaining attached bacteria were stained for 30 min with 200 μl 0.1% (wt/vol) crystal violet in an isopropanol-methanol-PBS solution (1:1:18, vol/vol). Excess stain was rinsed off by placing the pegs in a 96-well plate filled with 200 μl distilled water per well. After air drying of the pegs (30 min), the dye bound to the adherent biofilm was extracted with 30% glacial acetic acid (200 μl per well of a 96-well plate). The optical density at 570 nm (OD570) of each well was measured using a Synergy MX multimode reader (BioTek, Winooski, VT). The concentration of each compound needed to inhibit biofilm formation by 50% (BIC50) and the concentration of each compound needed to inhibit planktonic growth by 50% (IC50) were determined from the concentration gradient by using nonlinear curve fitting (GraphPad Prism software, version 5; GraphPad Software, Inc., La Jolla, CA). In the same assay, the effect on planktonic growth was evaluated. The activity was considered biofilm specific if the BIC50 was at least two times lower than the IC50. Data represent the means from at least 3 technical repeats with the corresponding 95% confidence intervals (provided in the supplemental material).

[2] = system: P. gingivalis ATCC 33277; test: Monospecies bacterial biofilm inhibition, static peg assay (anaerobic, 72 h); format: cell-based; conditions: Porphyromonas gingivalis, ATCC33277, P. gingivalis ATCC 33277, 37°C
Protocol: as §1

[3] = system: S. aureus SH1000; test: Monospecies bacterial biofilm inhibition, static peg assay; format: cell-based, Staphylococcus aureus
Protocol: as §1

[4] = system: B. cepacia LMG1222T; test: as above; format: cell-based, Burkholderia cepacia; conditions: Burkholderia cepacia, 25°C
Protocol: as §1

[5] = system: osteoblasts (OB); test: Mammalian cell viability assay, trypan blue staining; format: cell-based; conditions: 12.5 μM, 6 days of exposure
Protocol: The viability of two human primary cell types, namely, osteoblasts (OB) and bone marrow-derived mesenchymal stem cells (MSC), was tested according to the ISO 10993-5 standard, as previously described ([76]). Briefly, cells were seeded in 96-well tissue culture test plates (TPP; Trasadingen, Switzerland) at 5 × 10^3 cells/cm^2 in cell culture medium (advanced Dulbecco modified Eagle's medium [DMEM]) supplemented with 10% serum, 1× GlutaMAX, and 0.05 mg/ml gentamicin and were allowed to attach overnight. On the next day, the cells were exposed to (i) cell culture medium and medium with the corresponding control (0.5% ethanol or DMSO; negative controls), (ii) medium with 0.05% phenol (cytotoxic control), and (iii) medium with compounds (12.5 μM) and incubated for 2 h, 48 h, and 6 days (8 repeats for each condition). At each time point, the numbers of viable and dead cells were determined directly by trypan blue staining and indirectly by measuring metabolic activity with 3-(4,5-dimethylthiazol-2-yl)-2,5-diphenyltetrazolium bromide (MTT) staining.
The medium was removed from the wells, 1/3 trypan blue in DMEM was added to the cells, and the cells were incubated for 3 min, after which the trypan blue was removed and DMEM was added to the wells. In each of four wells, two microscopy fields were counted for viable (transparent) and dead (blue) cells.

[6] = read-out: IC50 (planktonic growth)
[7] = Staphylococcus aureus, SH1000, S. aureus SH1000, 37°C, read-out: BIC50
[8] = Staphylococcus aureus, SH1000, S. aureus SH1000, 37°C, read-out: IC50 (planktonic growth)

CCCCCn1c(-c2ccccc2)cnc1N [Compound 1]
IC50 ([1]; read-out: BIC50): ~202 µM | IC50 [1, 6]: ~329 µM | IC50 ([2]; read-out: BIC50): 13.2 µM | IC50 [2, 6]: 32.1 µM | IC50 [3, 7]: 163 µM | IC50 [3, 8]: > 400 µM | IC50 ([4]; read-out: BIC50): ~356 µM | IC50 [4, 6]: > 400 µM

CCCCCCCCn1c(-c2ccc(Cl)cc2)cnc1N [Compound 2]
IC50 [1, 6]: ~11.1 µM | IC50 ([2]; read-out: BIC50): 3.9 µM | IC50 [2, 6]: 6 µM | IC50 ([3]; S. aureus SH1000, 37°C, read-out: BIC50): 3.4 µM | IC50 [3, 7]: 2 to 6 µM | IC50 [3, 8]: 8.3 µM | IC50 ([4]; read-out: BIC50): 145 µM | IC50 [4, 6]: > 400 µM

CC(C)CNc1ncc(-c2ccc(Cl)cc2)[nH]1 [Compound 3]
IC50 ([1]; read-out: BIC50): > 400 µM | IC50 [1, 6]: 86.2 µM | IC50 ([2]; read-out: BIC50): 5.3 µM | IC50 [2, 6]: 5.1 µM | IC50 [3, 7]: 200 µM | IC50 [3, 8]: 175 µM | IC50 ([4]; read-out: BIC50): 88.1 µM | IC50 [4, 6]: > 400 µM

CCCCNc1ncc(-c2ccc(Br)cc2)[nH]1 [Compound 4]
IC50 ([1]; read-out: BIC50): > 400 µM | IC50 [1, 6]: 54.4 µM | IC50 ([2]; read-out: BIC50): 3.7 µM | IC50 [2, 6]: 8.2 µM | IC50 [3, 7]: 66.5 µM | IC50 [3, 8]: 89.4 µM | IC50 ([4]; read-out: BIC50): 189 µM | IC50 [4, 6]: > 400 µM

Clc1ccc(-c2cnc(NC3CCCC3)[nH]2)cc1 [Compound 5]
IC50 ([1]; read-out: BIC50): > 400 µM | IC50 [1, 6]: 39.5 µM | IC50 ([2]; read-out: BIC50): 5.7 µM | IC50 [2, 6]: 4 µM | IC50 [3, 7]: 70.6 µM | IC50 [3, 8]: 71.5 µM | IC50 ([4]; read-out: BIC50): 331 µM | IC50 [4, 6]: > 400 µM

Brc1ccc(-c2cnc(NCCn3cc(C4CC4)nn3)[nH]2)cc1 [Compound 6]
IC50 ([1]; read-out: BIC50): > 400 µM | IC50 [1, 6]: > 400 µM | IC50 ([2]; read-out: BIC50): 18.1 µM | IC50 [2, 6]: 19.5 µM | IC50 [3, 7]: > 400 µM | IC50 [3, 8]: > 400 µM | IC50 ([4]; read-out: BIC50): > 400 µM | IC50 [4, 6]: > 400 µM

CCCCCCCCn1c(-c2ccccc2)cnc1NCC(C)C [Compound 8a]
proliferation of OB (trypan blue) [5]: slightly reduced

CCCCCCCCn1c(-c2ccc(Br)cc2)cnc1NCC(C)C [Compound 8c]
proliferation of OB (trypan blue) [5]: increase in proliferation | viability of OB (trypan blue) [5]: very slightly reduced

CCCCCCCCn1c(-c2ccc(Cl)c(Cl)c2)cnc1NCC(C)C [Compound 8d]
proliferation of OB (trypan blue) [5]: increase in proliferation

CCCCCCCCn1c(-c2ccccc2)cnc1NC1CCCC1 [Compound 8e]
proliferation of OB (trypan blue) [5]: slightly reduced

CCCCCCCCn1c(-c2ccc(Br)cc2)cnc1NC1CCCC1 [Compound 8g]
proliferation of OB (trypan blue) [5]: increase in proliferation

CCCCCCCCn1c(-c2ccc(Cl)c(Cl)c2)cnc1NC1CCCC1 [Compound 8h]
proliferation of OB (trypan blue) [5]: increase in proliferation
